This is an account of results in US20110039770A1, “INHIBITORS OF PROTEIN KINASE C ISOFORMS AND USES THEREOF” (PHARMAGAP INC., priority 2005, published 2011).

For one experiment, the target named is T1, PKC beta 2 (Homo sapiens, UniProt P05771).
T1 construct: purchased
Kind of experiment: PepTag Non-Radioactive PKC Assay, purified isoform. It counts as biochemical. The note with it: negative = activation. Here is the method: (§1) The inhibitory effect of the PKI compounds 1 to 10 on purified commercially available isoforms representative of the 3 classes of PKC: cPKC (alpha, betaI/II) nPKC (delta and epsilon) aPKC (zeta) was assayed using the PepTag® Non-Radioactive PKC Assay (Promega, Madison, Wis.). The zeta isoform was tested with this assay although its affinity for the substrate provided in the kit was relatively low. The amount of enzyme in the reaction mixture for the PKC zeta assays was multiplied by 2. The assay was used following the manufacturer's recommendations. The principle of the assay is based on the difference in charge of phosphorylated (negatively charged) form versus the non-phoshorylated form of a fluorescent substrate. The two forms can be separated by gel electrophoresis and the negatively charged band excised and the fluorescence measured (exc. 440 nm and em. 590 nm) in 96 well plates on a Galaxy FluoStar plate reader. The PKI compounds were added to the assay mixture at 3 doses: 150, 300 and 600 μM and an extra 75 μM when the inhibition was too high. The assay is strictly biochemical and the doses of the compounds used, therefore, are generally not correlative with in vivo situations.

Experiment [1] deals with T2, PKC delta (Homo sapiens, UniProt Q05655). Briefly: PepTag Non-Radioactive PKC Assay, purified isoform. It counts as biochemical. The note with it: negative = activation. Here is the method: as §1
T2 sequence (Q05655 whole entry, canonical isoform): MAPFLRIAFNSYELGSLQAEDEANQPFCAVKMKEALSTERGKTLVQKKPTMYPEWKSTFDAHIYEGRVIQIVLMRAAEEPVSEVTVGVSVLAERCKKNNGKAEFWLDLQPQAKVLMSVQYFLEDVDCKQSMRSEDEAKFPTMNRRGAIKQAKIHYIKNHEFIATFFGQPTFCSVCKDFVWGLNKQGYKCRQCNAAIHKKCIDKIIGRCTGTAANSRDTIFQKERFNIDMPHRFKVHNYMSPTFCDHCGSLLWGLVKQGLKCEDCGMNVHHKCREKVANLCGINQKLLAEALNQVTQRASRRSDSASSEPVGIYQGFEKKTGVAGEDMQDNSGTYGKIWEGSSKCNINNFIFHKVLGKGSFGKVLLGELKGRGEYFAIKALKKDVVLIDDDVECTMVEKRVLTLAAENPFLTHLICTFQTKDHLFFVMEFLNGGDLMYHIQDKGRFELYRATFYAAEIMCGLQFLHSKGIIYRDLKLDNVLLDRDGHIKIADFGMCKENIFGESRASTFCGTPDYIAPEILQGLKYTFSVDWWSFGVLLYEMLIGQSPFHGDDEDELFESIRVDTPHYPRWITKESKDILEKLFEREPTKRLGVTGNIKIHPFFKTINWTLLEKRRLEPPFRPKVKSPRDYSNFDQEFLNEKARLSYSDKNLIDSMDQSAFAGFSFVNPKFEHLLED
Another experiment deals with PKC alpha (Homo sapiens, UniProt P17252). Briefly: PepTag Non-Radioactive PKC Assay, purified isoform. It counts as biochemical. Also on record: purchased. The note with it: negative = activation. The method, then:
as §1

A further experiment concerns the target T3, PKC epsilon (Homo sapiens, UniProt Q02156).
T3 sequence (Q02156 1-737): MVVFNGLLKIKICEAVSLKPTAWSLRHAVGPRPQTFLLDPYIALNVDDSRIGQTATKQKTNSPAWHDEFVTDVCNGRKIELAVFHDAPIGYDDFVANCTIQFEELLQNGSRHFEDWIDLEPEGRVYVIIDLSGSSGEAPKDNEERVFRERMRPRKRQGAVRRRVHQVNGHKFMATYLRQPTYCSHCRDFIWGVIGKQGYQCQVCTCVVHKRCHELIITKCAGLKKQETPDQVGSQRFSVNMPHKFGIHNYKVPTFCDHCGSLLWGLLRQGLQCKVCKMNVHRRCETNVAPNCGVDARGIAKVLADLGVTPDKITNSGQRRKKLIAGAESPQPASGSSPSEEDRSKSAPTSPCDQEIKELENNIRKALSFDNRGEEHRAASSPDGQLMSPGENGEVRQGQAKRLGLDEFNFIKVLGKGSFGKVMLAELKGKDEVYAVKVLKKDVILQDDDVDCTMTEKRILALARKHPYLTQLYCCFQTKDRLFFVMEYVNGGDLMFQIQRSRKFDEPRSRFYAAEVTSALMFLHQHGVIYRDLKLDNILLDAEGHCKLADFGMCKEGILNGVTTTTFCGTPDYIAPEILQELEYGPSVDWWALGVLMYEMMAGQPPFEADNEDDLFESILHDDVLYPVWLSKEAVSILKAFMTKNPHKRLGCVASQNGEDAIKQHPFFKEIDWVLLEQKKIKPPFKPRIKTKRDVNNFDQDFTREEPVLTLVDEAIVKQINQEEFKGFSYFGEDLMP
Kind of experiment: PepTag Non-Radioactive PKC Assay, purified isoform. Details: purchased. The note with it: negative = activation. Type of experiment: biochemical. Here is the method: as §1

The target of a further experiment is PKC beta 1 (Homo sapiens, UniProt P05771). Kind of experiment: PepTag Non-Radioactive PKC Assay, purified isoform. It counts as biochemical. Also on record: purchased. The note with it: negative = activation. The method, then: as §1
Sequence of PKC beta 1 (P05771 whole entry, canonical isoform): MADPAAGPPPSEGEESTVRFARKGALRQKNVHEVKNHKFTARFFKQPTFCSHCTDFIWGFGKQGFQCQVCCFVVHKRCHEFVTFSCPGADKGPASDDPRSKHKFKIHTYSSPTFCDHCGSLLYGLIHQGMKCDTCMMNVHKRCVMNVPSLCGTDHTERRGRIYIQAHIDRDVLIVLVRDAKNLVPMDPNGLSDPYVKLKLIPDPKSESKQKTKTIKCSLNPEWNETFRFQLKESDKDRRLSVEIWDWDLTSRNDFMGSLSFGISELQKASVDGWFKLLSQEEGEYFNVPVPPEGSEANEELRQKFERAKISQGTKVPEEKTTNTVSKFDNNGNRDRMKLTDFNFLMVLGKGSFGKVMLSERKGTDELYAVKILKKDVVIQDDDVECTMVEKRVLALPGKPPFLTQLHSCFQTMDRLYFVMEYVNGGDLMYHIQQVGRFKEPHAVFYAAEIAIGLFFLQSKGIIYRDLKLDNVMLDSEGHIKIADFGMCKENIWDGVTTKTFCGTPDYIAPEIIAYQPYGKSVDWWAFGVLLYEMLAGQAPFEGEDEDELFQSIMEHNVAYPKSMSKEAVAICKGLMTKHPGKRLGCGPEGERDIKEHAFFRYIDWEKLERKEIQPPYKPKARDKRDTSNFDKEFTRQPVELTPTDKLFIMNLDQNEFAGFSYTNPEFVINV
The next experiment has as its target T4, PKC zeta (Homo sapiens, UniProt Q05513).
T4 sequence (Q05513 1-592): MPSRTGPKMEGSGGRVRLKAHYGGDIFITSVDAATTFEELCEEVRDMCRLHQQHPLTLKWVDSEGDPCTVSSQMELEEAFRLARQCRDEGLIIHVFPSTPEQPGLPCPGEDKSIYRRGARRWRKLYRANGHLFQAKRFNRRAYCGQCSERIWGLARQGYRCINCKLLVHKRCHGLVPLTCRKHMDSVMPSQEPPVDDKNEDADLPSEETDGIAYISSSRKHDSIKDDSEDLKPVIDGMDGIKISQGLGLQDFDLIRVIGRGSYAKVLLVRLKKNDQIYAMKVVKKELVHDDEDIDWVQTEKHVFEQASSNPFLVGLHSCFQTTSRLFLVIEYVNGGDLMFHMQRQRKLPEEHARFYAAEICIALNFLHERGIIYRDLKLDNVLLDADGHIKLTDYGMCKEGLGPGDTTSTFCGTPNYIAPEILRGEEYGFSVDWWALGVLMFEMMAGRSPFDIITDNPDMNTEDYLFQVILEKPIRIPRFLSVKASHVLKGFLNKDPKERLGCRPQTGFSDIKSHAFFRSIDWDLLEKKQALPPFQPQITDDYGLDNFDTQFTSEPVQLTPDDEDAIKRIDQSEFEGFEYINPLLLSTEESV
Briefly: PepTag Non-Radioactive PKC Assay, purified isoform. Type of experiment: biochemical. Details: purchased. The note with it: enzyme amount x2, negative = activation. The method, then:
as §1

Experiment [2] has as its system IMR-32 human neuroblastoma cells. Here is the method:
The ability of compounds PKI 1, PKI 2 and PKI 3 to inhibit cancer cell proliferation was tested in vitro using the human neuroblastoma cell line IMR-32. Monolayer cell cultures were trypsinized and the test compound was added at the doses indicated in Table 24 and internalized by pinocytic endocytosis using Influx TM pinocytic cell-loading reagent, a kit from Molecular Probes (Eugene, Oreg.) following the manufacturer's recommendations. The indicated doses refer to the concentration in the loading medium, which was used on 1×10^6 cells in a 10 μl volume, i.e. contained 10 μg to 100 ug of test compound that provides […] per cell. […] The cells were treated on day 0 of the experiment. The cells loaded with test compound were cultured in 96 well plates (5,000 cells in 100 μl per well), and the proliferation was monitored over 3 consecutive days. The increase in cell population was quantified using a Hoechst reagent-based assay (modified from Rao and Otto, 1992, Analytical Biochem. 207:186-192) that measures the total DNA of the population. Fluorescence was measured using a Millipore CytoFluor 2350 plate reader (excitation at 360 nm and emission at 460 nm). The measurements were obtained as relative fluorescence intensity, a value that is directly correlated to the total number of cells. Data are expressed as a percentage of matching controls that were supplemented with culture medium alone.
The ability of the compound TIM 9 to inhibit cancer cell proliferation was tested in vitro using the human neuroblastoma cell line IMR-32 and following the general protocol described in Example 14.
The ability of the compound TIM 11 to inhibit IMR-32 cancer cell proliferation was tested in vitro following the general protocol described in Example 14.
The ability of the compound TIM 10 to inhibit cancer cell proliferation was tested in vitro using the human neuroblastoma IMR-32 cell line and following the general protocol described in Example 14.

The target in experiment [3] is T2, PKC delta. Kind of experiment: Kinase-Glo Luminescent Kinase Assay. Type of experiment: biochemical. The method, then:
Compounds TIM 10, 11, 13, 14, 15, and 18-22 (see Table 28) were tested for their ability to inhibit the activity of PKC-alpha, beta 1, delta and epsilon isoforms the Kinase-Glo™ Luminescent Kinase Assay (Promega, Cat # V6712/3/4) following the manufacturer's instructions.
Background: Kinase-Glo measures the ATP left after a reaction by luminescence.

Like-named read-outs stand apart in the source and are kept apart here. Where a SMILES comes first, the peptide text is derived from it. Bridges are numbered along the chain shown (N, C = ends). Roman numbers before positions name the chains, in order. [ ]: non-standard residue; d: D form. The star is where a group is joined. PNA(A) = NCCN(CC(=O)*)C(=O)Cn1cnc2c(N)ncnc21; Adenin9ylacetyl = Nc1ncnc2c1ncn2CC(=O)*; Gly(N-2-aminoethyl) = NCCNCC(=O)O

T1 sequence (P05771 1-673 isoform P05771-2): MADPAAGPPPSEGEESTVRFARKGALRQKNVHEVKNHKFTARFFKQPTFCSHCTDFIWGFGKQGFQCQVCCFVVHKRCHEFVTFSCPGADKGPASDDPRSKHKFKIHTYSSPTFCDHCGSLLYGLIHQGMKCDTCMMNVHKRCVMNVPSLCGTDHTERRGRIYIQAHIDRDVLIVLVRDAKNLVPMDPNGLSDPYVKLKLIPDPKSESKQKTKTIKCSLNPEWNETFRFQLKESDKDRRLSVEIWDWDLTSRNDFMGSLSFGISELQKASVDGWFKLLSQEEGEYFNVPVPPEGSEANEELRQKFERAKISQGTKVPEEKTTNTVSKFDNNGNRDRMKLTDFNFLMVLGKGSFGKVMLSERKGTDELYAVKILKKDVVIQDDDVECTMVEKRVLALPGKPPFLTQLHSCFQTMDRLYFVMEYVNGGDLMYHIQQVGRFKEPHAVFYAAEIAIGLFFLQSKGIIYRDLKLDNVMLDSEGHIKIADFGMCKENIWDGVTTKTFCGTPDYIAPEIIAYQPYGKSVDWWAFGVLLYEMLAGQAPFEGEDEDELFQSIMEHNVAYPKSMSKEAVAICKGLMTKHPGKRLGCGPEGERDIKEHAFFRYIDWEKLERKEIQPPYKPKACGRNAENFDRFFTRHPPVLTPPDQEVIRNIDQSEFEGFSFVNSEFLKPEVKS

Regarding `CC[C@H](C)[C@H](NC(=O)[C@H](CSSC[C@H](NC(=O)CNC(=O)CN(CCN)C(=O)Cn1cnc2c(N)ncnc21)C(=O)N[C@@H](CCCCN)C(=O)NCC(=O)N[C@@H](CCCCN)C(=O)N[C@@H](Cc1ccccc1)C(=O)N[C@@H](CCCCN)C(=O)N[C@@H](CCCNC(=N)N)C(N)=O)NC(=O)[C@H](Cc1c[nH]cn1)NC(C)=O)C(=O)NCC(=O)N[C@@H](CCCNC(=N)N)C(=O)N[C@@H](Cc1ccccc1)C(=O)N[C@@H](CCCCN)C(N)=O` [PKI 1] (I: Adenin9ylacetyl-[Gly(N-2-aminoethyl)]GCKGKFKR-NH2 / II: Ac-HCIGRFK-NH2; disulfide I:3-II:2; C-terminus assumed), the inhibition at 150 µM at PKC beta 2 was determined as 78%; on PKC delta [1], 56%; on PKC alpha, 78%; on PKC epsilon, 54%; on PKC beta 1, 71%; on PKC zeta, 15%. Moreover, the inhibition at 300 µM on PKC beta 2 came out at 90%; at PKC delta [1] it was 61%; at PKC alpha it was 84%; on PKC epsilon it was 58%; on PKC beta 1 it was 92%; on PKC zeta it was 10%. Also, the inhibition at 600 µM on PKC beta 2 came to 92%; on PKC delta [1], 88%; on PKC alpha it was 87%; on PKC epsilon it was 83%; at PKC beta 1 it was 93%; on PKC zeta, 20%.

On to `CC(=O)N[C@@H](CC(C)C)C(=O)N[C@@H](CCCNC(=N)N)C(=O)N[C@@H](CCCNC(=N)N)C(=O)N[C@@H](C)C(=O)N[C@@H](CCCCNC(=O)CN(CCN)C(=O)Cn1cnc2c(N)ncnc21)C(=O)N[C@@H](CC(C)C)C(=O)NCC(N)=O` [PKI 2] (Ac-LRRAK(PNA(A))LG-NH2; C-terminus assumed), for which the inhibition at 150 µM at PKC beta 2 is -59%; on PKC delta [1], 59%; on PKC alpha, -24%; at PKC epsilon, 58%; at PKC beta 1, 18%; on PKC zeta it was 0%. Besides, the inhibition at 300 µM on PKC beta 2 came to 61%; at PKC delta [1] it was 79%; at PKC alpha it was 35%; at PKC epsilon it was 67%; on PKC beta 1 it was 52%; at PKC zeta, 6%. The inhibition at 600 µM on PKC beta 2 turned out to be 74%; on PKC delta [1], 84%; on PKC alpha, 83%; on PKC epsilon, 84%; at PKC beta 1, 70%; at PKC zeta, 20%. The “% Inhibition of IMR-32 proliferation” value stood at 49% in experiment [2] (1.0 mg/mL in loading medium, 24 h); 51% in experiment [2] (1.0 mg/mL in loading medium, 48 h); 10% in experiment [2] (1.0 mg/mL in loading medium, 72 h); 29% in experiment [2] (2.5 mg/mL in loading medium, 24 h); 21% in experiment [2] (2.5 mg/mL in loading medium, 48 h); 26% in experiment [2] (2.5 mg/mL in loading medium, 72 h). The “% Inhibition of IMR-32 proliferation” value in experiment [2] (5.0 mg/mL in loading medium, 24 h) worked out at 31%; in experiment [2] (5.0 mg/mL in loading medium, 48 h), 20%; in experiment [2] (5.0 mg/mL in loading medium, 72 h), 17%; in experiment [2] (10.0 mg/mL in loading medium, 24 h), 31%; in experiment [2] (10.0 mg/mL in loading medium, 48 h) it was 29%; in experiment [2] (10.0 mg/mL in loading medium, 72 h), 21%.

Consider “Ac—FRRCFRL—(G)7—RRKKGGKDFVVKR—NH2 (Ac-FRRCFRLGGGGGGGRRKKGGKDFVVKR-NH2) [TIM 20, PRE 1 and PKI 4]”, for which the figures for the “% Inhibition PKC-δ” value with PKC delta [3] (5.0 μM) and in the experiment with PKC delta [3] (30.0 μM) were 46.0% and 45.4%, respectively. For the same molecule, in the experiment with PKC delta [3] (Kinase-Glo), the “inhibition of PKC delta activity (in words)” value is recorded as “good specificity for PKC delta”.

By inhibition is commonly meant the change of the read-out against control, counted positive when it falls.
